This note sets out measurements from ChEMBL document CHEMBL4229455, “Synthesis and anticancer activity of novel bisindolylhydroxymaleimide derivatives with potent GSK-3 kinase inhibition” (Bioorg Med Chem, 2018).

Assay [1] addresses Glycogen synthase kinase-3 (Sus scrofa) (UniProt B2LUN4+I6LNT8). The assay can be described thus: Inhibition of domestic porcine brain full length GSK-3alpha/beta assessed as residual activity at 10 uM using GS-1 as substrate in presence of [gamma-33P]ATP. The following applies: Sus scrofa domesticus.
For assay [2], the system named is MDA-MB-231. The assay can be described thus: Cytotoxicity against human MDA-MB-231 cells assessed as cell growth at 10 uM after 48 hrs by SRB assay relative to control. It is filed as functional. The settings on record: MDA-MB-231, 48 h, read-out: Activity. In general terms: Sulforhodamine B stains cellular protein and so reports cell mass.
For assay [3], the system named is MDA-MB-435. Briefly: Cytotoxicity against human MDA-MB-435 cells assessed as cell growth at 10 uM after 48 hrs by SRB assay relative to control. It is filed as functional. The following applies: MDA-MB-435, 48 h, read-out: Activity.
The target in assay [4] is T1, Serine/threonine-protein kinase haspin (Homo sapiens) (UniProt Q8TF76).
T1 sequence (whole entry): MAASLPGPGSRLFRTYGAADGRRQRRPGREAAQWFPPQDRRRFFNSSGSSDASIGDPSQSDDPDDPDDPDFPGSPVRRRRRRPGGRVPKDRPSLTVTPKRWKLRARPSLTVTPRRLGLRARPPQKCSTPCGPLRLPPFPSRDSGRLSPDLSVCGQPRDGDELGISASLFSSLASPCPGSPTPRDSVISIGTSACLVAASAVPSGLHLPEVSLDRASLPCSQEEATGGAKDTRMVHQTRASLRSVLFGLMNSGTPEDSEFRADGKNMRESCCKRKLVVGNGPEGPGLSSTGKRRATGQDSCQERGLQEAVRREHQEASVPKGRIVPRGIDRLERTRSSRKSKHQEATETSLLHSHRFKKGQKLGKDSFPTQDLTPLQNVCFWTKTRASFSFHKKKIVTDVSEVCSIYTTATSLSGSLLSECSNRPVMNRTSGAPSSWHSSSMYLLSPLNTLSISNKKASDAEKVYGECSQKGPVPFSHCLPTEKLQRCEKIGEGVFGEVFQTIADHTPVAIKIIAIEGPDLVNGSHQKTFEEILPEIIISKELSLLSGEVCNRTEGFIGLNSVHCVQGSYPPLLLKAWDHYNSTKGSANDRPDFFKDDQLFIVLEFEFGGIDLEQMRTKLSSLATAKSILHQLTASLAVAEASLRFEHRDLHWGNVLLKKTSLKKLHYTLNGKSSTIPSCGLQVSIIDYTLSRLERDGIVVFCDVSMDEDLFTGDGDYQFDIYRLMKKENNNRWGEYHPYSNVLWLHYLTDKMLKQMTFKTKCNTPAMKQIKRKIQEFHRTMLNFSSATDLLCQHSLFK
The assay can be described thus: Inhibition of recombinant human haspin kinase domain expressed in bacteria assessed as residual activity at 10 uM using histone H3 (1 to 21 residues) peptide as substrate in presence of [gamma-33P]ATP.

Assay [5] has as its target Dual specificity tyrosine-phosphorylation-regulated kinase 1A (Rattus norvegicus, UniProt Q63470). The assay can be described thus: Inhibition of recombinant rat DYRK1A kinase domain expressed in bacteria using KKISGRLSPIMTEQ as substrate in presence of [gamma-33P]ATP.
The test system of assay [6] is HOP-62. Briefly: Cytotoxicity against human HOP62 cells assessed as cell growth at 10 uM after 48 hrs by SRB assay relative to control. Format: functional. The settings on record: HOP-62, 48 h, read-out: Activity.
Assay [7] relates to CCRF-CEM. The assay can be described thus: Cytotoxicity against human CCRF-CEM cells assessed as cell growth at 10 uM after 48 hrs by SRB assay relative to control. The settings on record: read-out: Activity. Format: functional.
In assay [8] the target is CDK9/cyclin T1 (Homo sapiens, UniProt P50750). Briefly: Inhibition of recombinant full length human CDK9/cyclin T expressed in baculovirus infected Sf9 insect cells using YSPTSPSYSPTSPSYSPTSPSKKKK as substrate in presence of [gamma-33P]ATP.
Assay [9] relates to SF-539. The assay can be described thus: Cytotoxicity against human SF539 cells assessed as cell growth at 10 uM after 48 hrs by SRB assay relative to control. Format: functional. The settings on record: SF-539, 48 h, read-out: Activity.
Assay [10] deals with Glycogen synthase kinase-3 (Sus scrofa, UniProt B2LUN4+I6LNT8). The assay can be described thus: Inhibition of domestic porcine brain full length GSK-3alpha/beta using GS-1 as substrate in presence of [gamma-33P]ATP. On the set-up: species or system Sus scrofa domesticus.
Assay [11] concerns Malme-3M. Briefly: Cytotoxicity against human MALME-3M cells assessed as cell growth at 10 uM after 48 hrs by SRB assay relative to control. It is filed as functional. The following applies: read-out: Activity.
The subject of assay [12] is SR. Briefly: Cytotoxicity against human SR cells assessed as cell growth at 10 uM after 48 hrs by SRB assay relative to control. It is filed as functional. The following applies: read-out: Activity.
Assay [13] concerns SK-MEL-2. The assay can be described thus: Cytotoxicity against human SK-MEL-2 cells assessed as cell growth at 10 uM after 48 hrs by SRB assay relative to control. It is filed as functional. The following applies: SK-MEL-2, 48 h, read-out: Activity.
Assay [14] concerns the target Serine/threonine-protein kinase pim-1 (Homo sapiens, UniProt P11309). Briefly: Inhibition of recombinant full length human PIM1 expressed in bacteria using histone H1 as substrate in presence of [gamma-33P]ATP.
Assay [15] concerns UO-31. The assay can be described thus: Cytotoxicity against human UO31 cells assessed as cell growth at 10 uM after 48 hrs by SRB assay relative to control. Format: functional. The following applies: UO-31, 48 h, read-out: Activity.
Assay [16] has as its system HL-60(TB). The assay can be described thus: Cytotoxicity against human HL-60(TB) cells assessed as cell growth at 10 uM after 48 hrs by SRB assay relative to control. Format: functional. The following applies: HL-60, 48 h, read-out: Activity.
Assay [17] has as its system SK-OV-3. The assay can be described thus: Cytotoxicity against human SKOV3 cells assessed as cell growth at 10 uM after 48 hrs by SRB assay relative to control. It is filed as functional. The settings on record: SK-OV-3, 48 h, read-out: Activity.
For assay [18], the system named is SNB-19. The assay can be described thus: Cytotoxicity against human SNB19 cells assessed as cell growth at 10 uM after 48 hrs by SRB assay relative to control. The settings on record: SNB-19, 48 h, read-out: Activity. Format: functional.
The subject of assay [19] is NCI-H460. Briefly: Cytotoxicity against human NCI-H460 cells assessed as cell growth at 10 uM after 48 hrs by SRB assay relative to control. Format: functional. The following applies: NCI-H460, 48 h, read-out: Activity.
The subject of assay [20] is U-251. Briefly: Cytotoxicity against human U251 cells assessed as cell growth at 10 uM after 48 hrs by SRB assay relative to control. It is filed as functional. The following applies: U-251, 48 h, read-out: Activity.
The subject of assay [21] is DU-145. The assay can be described thus: Cytotoxicity against human DU145 cells assessed as cell growth at 10 uM after 48 hrs by SRB assay relative to control. It is filed as functional. The settings on record: DU-145, 48 h, read-out: Activity.
For assay [22], the system named is BT-549. Briefly: Cytotoxicity against human BT549 cells assessed as cell growth at 10 uM after 48 hrs by SRB assay relative to control. Format: functional. The following applies: BT-549, 48 h, read-out: Activity.
For assay [23], the system named is HCT-116. Briefly: Cytotoxicity against human HCT116 cells assessed as cell growth at 10 uM after 48 hrs by SRB assay relative to control. Format: functional. The following applies: HCT-116, 48 h, read-out: Activity.
The test system of assay [24] is HT-29. The assay can be described thus: Cytotoxicity against human HT-29 cells assessed as cell growth at 10 uM after 48 hrs by SRB assay relative to control. The settings on record: HT-29, 48 h, read-out: Activity. It is filed as functional.

Molecules are shown by their SMILES. Bounds are passed on as bounds.

Sequence of CDK9/cyclin T1 (O60563 whole entry): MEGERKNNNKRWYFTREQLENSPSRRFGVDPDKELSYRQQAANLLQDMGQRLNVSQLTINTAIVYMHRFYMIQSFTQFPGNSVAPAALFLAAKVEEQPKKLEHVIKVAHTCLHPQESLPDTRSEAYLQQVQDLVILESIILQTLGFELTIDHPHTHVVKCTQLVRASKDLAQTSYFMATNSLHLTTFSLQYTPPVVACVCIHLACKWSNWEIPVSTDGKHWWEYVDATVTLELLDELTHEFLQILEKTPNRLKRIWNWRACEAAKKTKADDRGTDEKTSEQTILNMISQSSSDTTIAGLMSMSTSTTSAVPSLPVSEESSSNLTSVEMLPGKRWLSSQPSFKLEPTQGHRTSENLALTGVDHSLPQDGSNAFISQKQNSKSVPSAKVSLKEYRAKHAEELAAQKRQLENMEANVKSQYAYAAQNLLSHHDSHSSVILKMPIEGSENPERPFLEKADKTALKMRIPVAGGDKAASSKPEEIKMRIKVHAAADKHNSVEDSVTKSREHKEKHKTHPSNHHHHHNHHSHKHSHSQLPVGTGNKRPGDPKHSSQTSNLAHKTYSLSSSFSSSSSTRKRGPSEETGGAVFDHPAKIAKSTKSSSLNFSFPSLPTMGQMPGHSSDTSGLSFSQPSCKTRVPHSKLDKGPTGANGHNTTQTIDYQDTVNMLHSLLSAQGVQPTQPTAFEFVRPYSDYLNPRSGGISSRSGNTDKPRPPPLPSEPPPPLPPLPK
Sequence of CDK9/cyclin T1 (P50750 whole entry): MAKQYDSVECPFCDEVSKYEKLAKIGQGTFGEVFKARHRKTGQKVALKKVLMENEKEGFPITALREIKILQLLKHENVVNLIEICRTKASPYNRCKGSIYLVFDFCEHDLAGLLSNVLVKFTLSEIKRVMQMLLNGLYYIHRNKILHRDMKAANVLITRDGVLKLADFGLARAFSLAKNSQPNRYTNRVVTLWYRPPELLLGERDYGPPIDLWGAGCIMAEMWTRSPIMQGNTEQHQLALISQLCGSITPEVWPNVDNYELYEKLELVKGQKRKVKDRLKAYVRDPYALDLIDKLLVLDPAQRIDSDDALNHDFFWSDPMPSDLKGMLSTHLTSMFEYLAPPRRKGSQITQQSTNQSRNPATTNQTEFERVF
Sequence of Serine/threonine-protein kinase pim-1 (P11309 whole entry): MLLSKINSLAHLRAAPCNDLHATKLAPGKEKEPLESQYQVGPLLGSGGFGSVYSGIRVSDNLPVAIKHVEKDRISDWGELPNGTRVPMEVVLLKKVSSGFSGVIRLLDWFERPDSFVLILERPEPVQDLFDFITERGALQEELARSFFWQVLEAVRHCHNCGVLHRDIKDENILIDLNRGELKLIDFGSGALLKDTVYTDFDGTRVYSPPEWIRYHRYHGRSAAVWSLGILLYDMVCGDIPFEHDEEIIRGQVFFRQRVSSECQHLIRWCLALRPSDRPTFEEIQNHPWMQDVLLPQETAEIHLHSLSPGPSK

Turning to `Cn1cc(C2=C(c3c[nH]c4ccccc34)C(=O)N(O)C2=O)c2ccccc21`, the values for the Activity in assay [1] and in assay [4] were -18% and 112%, respectively. The growth at 10 µM in assay [2] is 59.5%; in [3], 17.1%; in assay [6], 67.9%; in [7], 82.2%; in assay [9], 95.5%; in [11], 68.7%. Also, the growth at 10 µM turned out to be 30.9% in assay [12]; 76.4% in [13]; 40.5% in assay [15]; 72.8% in [16]; 92.1% in assay [17]; 97.5% in assay [18]. Also, the growth at 10 µM came out at 87.4% in assay [19]; 98.5% in assay [20]; 100% in assay [21]; 82.7% in assay [22]; 83.3% in assay [23]; 81.5% in assay [24]. Besides, the IC50 (as a rule, the concentration needed to halve the response being measured) in [5] is more than 10 µM; in assay [8], 2 µM; in assay [10] it was 0.2 µM; in assay [14], 5 µM.

For the compound `Cn1cc(C2=C(c3cn(C)c4ccccc34)C(=O)N(O)C2=O)c2ccccc21`, the Activity in assay [1] is -13%; in assay [4], 118%. The growth at 10 µM was 98% in assay [2]; 94.9% in assay [3]; 97% in [6]; 107% in [9]; 118% in [11]; 75.4% in [12]. The growth at 10 µM in assay [13] worked out at 102%; in assay [15] it was 74.2%; in assay [16], 87.1%; in assay [17], 101%; in assay [18], 102%; in [19], 99.5%. Further, the growth at 10 µM stood at 91.4% in assay [20]; 123% in assay [21]; 107% in [22]; 99.9% in [23]; 102% in [24]. Also, the IC50 in assay [5] was more than 10 µM; in assay [8], 9 µM; in assay [10], 3 µM; in assay [14], more than 10 µM.

As for `CC(C)n1cc(C2=C(c3c[nH]c4ccccc34)C(=O)N(O)C2=O)c2ccccc21`, the Activity in assay [1] worked out at 2%; in assay [4], 123%. Further, the growth at 10 µM in [2] is 89.5%; in [3], 102%; in assay [6] it was 98.6%; in assay [7], 95.8%; in assay [9], 97.3%; in [11] it was 102%. Further, the growth at 10 µM in assay [12] was 85.7%; in assay [13] it was 86.8%; in [15] it was 67.9%; in assay [16], 82.6%; in [17], 102%; in assay [18] it was 111%. The growth at 10 µM in [19] turned out to be 95.3%; in assay [20], 100%; in [21] it was 107%; in assay [22], 99.7%; in assay [23], 85.4%; in assay [24], 99.2%. The IC50 in [5] is more than 10 µM; in assay [8], more than 10 µM; in [10] it was 1.5 µM; in assay [14], more than 10 µM.

For `O=C1C2=C(C(=O)N1O)c1cn(c3ccccc13)CCCCCCn1cc2c2ccccc21`, the Activity in assay [1] came out at 48%; in assay [4] it was 134%. In addition, the growth at 10 µM was found to be 104% in [2]; 111% in assay [3]; 107% in [6]; 99.4% in [7]; 95.7% in assay [9]; 105% in assay [11]. Moreover, the growth at 10 µM came to 91.9% in assay [12]; 120% in assay [13]; 80.3% in assay [15]; 105% in [16]; 106% in assay [17]; 100% in assay [19]. Also, the growth at 10 µM in [20] turned out to be 106%; in assay [21], 108%; in [22] it was 97.6%; in [23] it was 115%; in assay [24] it was 121%. Besides, the concentration for half-maximal inhibition (IC50) in [5], in assay [8], in assay [10] and in assay [14] was more than 10 µM throughout.

With `Cn1cc(C2=C(c3cn(C)c4ncccc34)C(=O)NC2=O)c2ccccc21`, the results for the Activity in assay [1] and in [4] were -21% and 101%, respectively. Moreover, the growth at 10 µM in assay [2] was in the range of 35 to 56.3%; in [3] it was 12.9 to 14%; in assay [6] it was 21 to 40.6%; in assay [7], 6.61 to 9%; in assay [11] it was 20.3 to 29%; in assay [12], 7 to 12.1%. The growth at 10 µM in assay [15] is 12 to 22.6%; in assay [16], 3.55 to 9%; in [18], 40 to 65%; in assay [19], 19 to 19.5%; in assay [20] it was 27%; in assay [21] it was 36 to 63.2%. The growth at 10 µM in assay [23] lay in the range of 15 to 21.9%; in assay [24], 2.28 to 5%. Further, the IC50 in [5] was more than 10 µM; in assay [8] it was 0.08 µM; in assay [10], 0.03 µM; in [14], 2 µM.
